Key:
Type in all cases: in vivo, rats
[1] = system: NMDA receptors in the RVLM; assay: Pressor response to microinjection of NMDA into the RVLM; details: 0.14 nmol
Excerpt: (§1) The procedure for ICV administration of anesthetized rats was similar to those described in our previous study. Adult male Sprague Dawley 8–10 weeks old rats (300–400 g) were used in this experiment under urethane anesthetized (1.2–1.5 g/kg i.p.). The femoral artery was cannulated with polyethylene tubing (PE 50) and connected with its output to BIOPAC Systems Inc. (MP100 or MP160) to measure pulsatile and mean arterial pressure. After a set of blood pressure recordings, each rat was arranged in a stereotaxic frame for ICV and RVLM microinjection using a stainless still needle connected to the Hamilton microsyringes (10 µL). Drugs were microinjected using a syringe pump (KDS 100) at a rate of 10 µL/min. The magnitude of increases in the blood pressure (pressor responses) induced by microinjection of NMDA (0.14 nmol, 100 nL) into the RVLM every 30 min was used as an index of NMDA receptor function in the RVLM. Aβ and 0.9% saline (5 µL) were applied intracerebroventricularly. The data were processed and calculated before the treatment and at a different period after drug administration.

[2] = system: NMDA receptors in the RVLM; assay: NMDA-induced pressor responses in the RVLM after ICV drug administration
Excerpt: as §1
All values are expressed as mean ± SEM and statistically analyzed using GraphPad Prism version 9.0 for Windows (GraphPad Software, San Diego, CA, USA). We analyzed the original data for NMDA-induced increases in MAP (mmHg) before and after applications of Aβ statistically. The time-effect relationship of Aβ on NMDA-induced pressor responses was analyzed using the repeated measure one-way ANOVA followed by Bonferroni’s multiple comparison post-test. p ≤ 0.05 is considered statistically significant. We compared the effects of Aβ on NMDA-increased mean arterial pressure to the control and expressed them as percentage changes; the peak amplitude of NMDA-induced pressor responses before the application of Aβ is taken as control (i.e., 100%). Immunohistochemical data and ELISA data were analyzed using an unpaired t-test. p ≤ 0.05 is considered statistically significant.

GluN2B = assay: Immunofluorescence, number of GluN2B-IF neurons in the RVLM; details: 10 min after ICV 2 nmol; mean ± SEM, n = 7; saline group 55.2 ± 1.4
Experimental: (§2) The procedure of immunostaining of RVLM tissue sections was similar to those previously described. The animals were anesthetized with i.p. urethane (1.2–1.5 g/kg). The rat was sacrificed at 10 min following ICV administration of Aβ or saline by transcardial perfusion with 50 mL of saline followed by 300–400 mL of paraformaldehyde (4%) in 0.1 M phosphate buffer (pH 7.4). The RVLM was post-fixed in the same fixative overnight and then cryoprotected in 30% sucrose in 0.05 M phosphate buffer (pH 7.4) for 48 h. Coronal brainstem sections (30 μm) were cut through the segments using a cryostat (Leica CM3050S, Leica Microsystems Nussloch GmbH, Nussloch, Germany). […] For the relative quantification of immunoreactivity, each image field was captured using a CCD camera mounted on a microscope (Nikon Eclipse E800, Corporation, Tokyo, Japan). […] The average number of immunoreactive (IR) neurons on both sides per section was counted and averaged. We randomly took 4–6 sections per animal and calculated the average number of IR neurons representing the animal’s immunoreactivity to the antibody.
(§3) All values are expressed as mean ± SEM and statistically analyzed using GraphPad Prism version 9.0 for Windows (GraphPad Software, San Diego, CA, USA). We analyzed the original data for NMDA-induced increases in MAP (mmHg) before and after applications of Aβ statistically. […]

pGluN1-serine896 = assay: Immunohistochemistry, number of pGluN1-serine896-immunoreactive neurons in the RVLM; details: 10 min after ICV 2 nmol; mean ± SEM, n = 6; saline group 48.9 ± 1.8; no significant difference
Experimental: as §2, §3

GluN1 = assay: Immunohistochemistry, number of GluN1-immunoreactive neurons in the RVLM; details: 10 min after ICV 2 nmol; mean ± SEM, n = 6; saline group 63.2 ± 2.4; no significant difference
Experimental: as §2, §3

pGluN2B-serine1480 = assay: Immunofluorescence, number of pGluN2B-serine1480-IF neurons in the RVLM; details: 10 min after ICV 2 nmol; mean ± SEM, n = 6; saline group 45.9 ± 1.0 (n = 8); significant difference
Experimental: as §2, §3

[3] = ICV 2 nmol (Aβ1-40 n = 14, Aβ1-42 n = 9), NMDA 0.14 nmol into RVLM every 30 min, urethane-anesthetized male SD rats

CN[C@H](CC(=O)O)C(=O)O [NMDA, N-methyl-D-aspartate]
duration of pressor responses ([1]; 100 nL into RVLM): 10 to 15 min
onset of pressor responses ([1]; 100 nL into RVLM): ≤ 2 min
effect of microinjection into the RVLM on MAP ([1]; 100 nL, at intervals of 30 min, urethane-anesthetized male SD rats): induced an increase in MAP

CC(C(O)c1ccc(O)cc1)N1CCC(Cc2ccccc2)CC1 (centres unmarked) [ifenprodil]
effect on NMDA-induced pressor responses in the RVLM ([2]; ICV 0.5 nmol alone, n = 5): did not produce any noticeable changes
effect on NMDA-induced pressor responses in the RVLM ([2]; ICV 2.5 nmol alone, n = 5): significantly inhibited
effect of co-administration on the inhibitory effects of Aβ1-40 on NMDA-induced pressor responses ([2]; ICV ifenprodil 0.5 nmol with Aβ1-40 2 nmol, n = 6): attenuated the inhibitory effects

CC12CC3CC(C)(C1)CC(N)(C3)C2 [memantine]
effect on NMDA-induced pressor responses in the RVLM ([2]; ICV 9 nmol alone, n = 6, 10 and 40 min after administration): did not produce any noticeable changes
effect of co-administration on the inhibitory effects of Aβ1-40 on NMDA-induced pressor responses ([2]; ICV memantine 9 nmol with Aβ1-40 2 nmol, n = 4): disappeared

Aβ1-40: soluble human amyloid-beta peptide 1-40, purchased from Taiclone Biotech Corp.
number of GluN2B-IF neurons in the RVLM (GluN2B): 59.2 ± 2.7
number of pGluN1-serine896-IR neurons in the RVLM (pGluN1-serine896): 46.4 ± 0.8
effect on NMDA-induced pressor responses in the RVLM ([2]; ICV 0.2 nmol, n = 12, NMDA 0.14 nmol into RVLM every 30 min, urethane-anesthetized male SD rats): slight reduction
effect on NMDA-induced pressor responses in the RVLM [2, 3]: significantly inhibited
number of GluN1-IR neurons in the RVLM (GluN1): 63.2 ± 3.8
number of pGluN2B-serine1480-IF neurons in the RVLM (pGluN2B-serine1480): 52.6 ± 2.0

Aβ1-42: soluble human amyloid-beta peptide 1-42, purchased from Taiclone Biotech Corp.
effect on NMDA-induced pressor responses in the RVLM [2, 3]: did not produce any noticeable changes
effect on NMDA-induced pressor responses in the RVLM on co-administration with ifenprodil ([2]; ICV Aβ1-42 2 nmol with ifenprodil 0.5 nmol, n = 6): little effect
effect on NMDA-induced pressor responses in the RVLM on co-administration with memantine ([2]; ICV Aβ1-42 2 nmol with memantine 9 nmol, n = 6): did not show noticeable changes
